# Results as given in article PMC12337661, “PIEZO1 mechanical insensitivity in generalized lymphatic dysplasia with the potential for pharmacological rescue” (iScience, 2025).
# Experiments:
# Assay in all cases: Intracellular Ca2+ measurement (fura-2), T-REx-293 cells stably transfected
# Format in all cases: cell-based
# E824V mPIEZO1 = molecular target: T1, E824V mPIEZO1 (Mus musculus, UniProt E2JF22, E824V); conditions: normalized to the WT Yoda1 maximum response
# T1 construct: expressed in transfected cells
# T1 sequence (E2JF22 whole entry E824V): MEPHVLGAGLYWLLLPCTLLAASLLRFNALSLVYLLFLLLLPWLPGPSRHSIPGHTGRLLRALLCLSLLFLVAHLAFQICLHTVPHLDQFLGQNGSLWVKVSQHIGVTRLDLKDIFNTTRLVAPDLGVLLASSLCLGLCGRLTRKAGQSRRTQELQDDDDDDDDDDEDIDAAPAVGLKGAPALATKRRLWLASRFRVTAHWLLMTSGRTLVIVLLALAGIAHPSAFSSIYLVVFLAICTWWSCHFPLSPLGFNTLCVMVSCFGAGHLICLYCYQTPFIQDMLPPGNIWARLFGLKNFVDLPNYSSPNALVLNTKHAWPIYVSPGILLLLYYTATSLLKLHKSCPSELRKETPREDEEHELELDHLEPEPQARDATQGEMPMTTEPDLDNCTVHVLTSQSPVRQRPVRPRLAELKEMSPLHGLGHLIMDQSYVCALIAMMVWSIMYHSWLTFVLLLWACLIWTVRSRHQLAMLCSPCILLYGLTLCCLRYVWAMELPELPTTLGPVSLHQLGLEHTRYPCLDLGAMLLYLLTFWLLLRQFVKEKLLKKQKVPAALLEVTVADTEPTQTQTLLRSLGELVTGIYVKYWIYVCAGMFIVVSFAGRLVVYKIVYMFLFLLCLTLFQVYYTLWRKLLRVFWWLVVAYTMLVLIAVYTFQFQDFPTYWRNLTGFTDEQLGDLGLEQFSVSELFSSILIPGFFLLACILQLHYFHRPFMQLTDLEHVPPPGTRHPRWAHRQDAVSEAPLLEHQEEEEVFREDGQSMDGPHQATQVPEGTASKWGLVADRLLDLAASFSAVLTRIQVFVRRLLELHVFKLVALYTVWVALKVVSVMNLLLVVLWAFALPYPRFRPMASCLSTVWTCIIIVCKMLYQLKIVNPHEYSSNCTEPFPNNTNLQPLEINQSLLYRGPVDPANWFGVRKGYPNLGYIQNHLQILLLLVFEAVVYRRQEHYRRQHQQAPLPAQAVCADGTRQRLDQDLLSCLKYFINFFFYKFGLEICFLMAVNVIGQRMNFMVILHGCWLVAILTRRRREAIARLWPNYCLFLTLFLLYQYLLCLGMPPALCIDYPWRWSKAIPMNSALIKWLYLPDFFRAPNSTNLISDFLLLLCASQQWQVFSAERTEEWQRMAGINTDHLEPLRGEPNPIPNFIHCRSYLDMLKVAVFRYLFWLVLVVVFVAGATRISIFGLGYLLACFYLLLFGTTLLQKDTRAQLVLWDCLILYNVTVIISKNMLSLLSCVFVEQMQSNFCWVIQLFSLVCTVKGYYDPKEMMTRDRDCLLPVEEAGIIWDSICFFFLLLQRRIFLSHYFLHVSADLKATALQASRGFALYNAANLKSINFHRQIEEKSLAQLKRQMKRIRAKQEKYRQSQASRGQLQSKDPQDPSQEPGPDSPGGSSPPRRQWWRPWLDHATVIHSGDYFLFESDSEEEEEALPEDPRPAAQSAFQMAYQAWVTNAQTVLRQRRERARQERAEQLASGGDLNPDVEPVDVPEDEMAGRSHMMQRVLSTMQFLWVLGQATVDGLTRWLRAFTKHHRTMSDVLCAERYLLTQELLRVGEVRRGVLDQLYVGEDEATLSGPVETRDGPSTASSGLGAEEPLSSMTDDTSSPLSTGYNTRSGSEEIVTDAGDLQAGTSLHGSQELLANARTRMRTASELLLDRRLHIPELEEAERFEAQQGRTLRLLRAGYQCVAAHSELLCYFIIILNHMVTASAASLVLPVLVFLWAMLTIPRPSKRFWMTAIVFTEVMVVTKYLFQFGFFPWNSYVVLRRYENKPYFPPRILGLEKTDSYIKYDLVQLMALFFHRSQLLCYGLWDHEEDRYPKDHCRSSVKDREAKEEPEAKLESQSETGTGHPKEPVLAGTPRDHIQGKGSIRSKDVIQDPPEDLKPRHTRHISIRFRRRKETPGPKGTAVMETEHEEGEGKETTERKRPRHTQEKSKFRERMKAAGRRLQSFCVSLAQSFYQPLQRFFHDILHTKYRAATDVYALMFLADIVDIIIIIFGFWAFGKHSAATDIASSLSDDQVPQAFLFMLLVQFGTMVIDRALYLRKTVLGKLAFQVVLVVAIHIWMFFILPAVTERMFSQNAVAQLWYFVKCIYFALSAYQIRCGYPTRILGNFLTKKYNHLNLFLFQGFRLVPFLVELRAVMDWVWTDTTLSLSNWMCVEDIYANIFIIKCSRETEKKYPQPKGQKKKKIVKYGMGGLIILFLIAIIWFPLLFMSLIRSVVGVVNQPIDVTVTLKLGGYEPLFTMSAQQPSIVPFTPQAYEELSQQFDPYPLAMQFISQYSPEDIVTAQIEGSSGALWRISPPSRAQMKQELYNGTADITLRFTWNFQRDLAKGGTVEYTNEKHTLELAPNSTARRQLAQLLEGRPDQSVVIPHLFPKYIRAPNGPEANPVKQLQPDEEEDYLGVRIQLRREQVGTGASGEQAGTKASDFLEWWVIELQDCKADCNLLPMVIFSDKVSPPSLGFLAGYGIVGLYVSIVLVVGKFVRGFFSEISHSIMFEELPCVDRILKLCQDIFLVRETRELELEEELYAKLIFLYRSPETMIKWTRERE
# Protocol: (§1) T-REx-293 cell line was transfected with pcDNA4/TO-mPIEZO1 constructs using Lipofectamine 2000 (Invitrogen) as above and treated with 200 μg.mL^−1 zeocin (InvivoGen) to select for stably transfected cells. At least two strongly expressing clonal cell lines were established and tested for each variant. All cell lines were maintained in Dulbecco’s Modified Eagle’s medium (Invitrogen) supplemented with 10% heat-inactivated fetal calf serum (Sigma-Aldrich), penicillin (50 units.mL^−1) and streptomycin (0.5 mg.mL^−1) (Sigma-Aldrich) and grown at 37°C in a humidified 5% CO2 incubator.
# (§2) For intracellular Ca^2+ assays, cells were plated at 80–90% confluence in 96-well plates 24 h prior to recordings (6–8 × 10^4 cells per well). […] Cells were washed with SBS and incubated at room temperature for 20 min prior to recordings. Equal volumes of 2x concentrated compounds were injected to test for acute channel activation. Pre-incubation with compounds occurred during the 20 min prior to recordings. To expose cell membranes to hypo-osmolality, an equal volume of hypotonic SBS (containing only 35 mM NaCl) was injected onto the cells. Measurements were made on a fluorescence plate reader (Flexstation III, Molecular Devices) at room temperature (21 ± 2°C). Fura-2 was excited at 340 nm and 380 nm and emitted light collected at 510 nm, with measurements shown as the change in fluorescence (F) ratio (ΔF340/380).
# (§3) KC41 (Dooku1) was prepared as described.[28] All purchased chemicals and solvents were used without further purification unless otherwise stated. All compounds were at least 95% pure by 1H NMR. 1H Nuclear Magnetic Resonance spectra were recorded at 500 MHz using a Bruker DRX 500 instrument or at 400 MHz using a Bruker DPX 400. 1H spectra are referenced based on the residual proton in the solvent (e.g., the CHCl3, 0.01% in 99.99% CDCl3). Coupling constants (J) are reported to the nearest 0.1 Hz. 13C NMR spectra were recorded at 125 MHz on 500 MHz spectrometers or at 100 MHz on 400 MHz spectrometers. LC-MS was performed on a Bruker Daltronics running a gradient of increasing acetonitrile (5–95%) in H2O both containing 0.1% formic acid at 1 mL.min^−1, on a short path C18 reverse phase column, detecting compounds with both a diode array detector and a Bruker mass spectrum analyser. HRMS was performed on a Bruker Daltonics micrOTOF using positive electrospray ionisation (ES+). Automated column chromatograph was carried out using a Biotage Isolera Four, using either Sfär Silica D or KP-Silica cartridges. HPLC was performed on an Agilent 1290 Infinity Series equipped with a UV detector and Hyperprep C18 reverse phase column. Key to NMR abbreviations: s (singlet), br s (broad singlet) d (doublet), dd (doublet of doublets), ddd (doublet of doublets of doublets), t (triplet), dt (doublet of triples), q (quartet), m (multiplet), ap. t (apparent triplet). For experiments, Yoda1 and its analogues were prepared as 10 mM stock solutions in 100% dimethyl sulfoxide (DMSO) before serial dilution in DMSO and final dilution in aqueous solution. Cells were exposed to 0.1% DMSO for all concentrations of the compounds from 0 to 10 μM.
# WT mPIEZO1 = molecular target: T2, WT mPIEZO1 (Mus musculus, UniProt E2JF22); conditions: 1.5 min exposure; fitted Hill equation
# T2 construct: expressed in transfected cells
# T2 sequence (E2JF22 whole entry): as the sequence (E2JF22 whole entry E824V) above, with V824E counted along it
# Protocol: as §1, §2, §3
# R2351Q mPIEZO1 = molecular target: T3, R2351Q mPIEZO1 (Mus musculus, UniProt E2JF22, R2351Q); conditions: for Mean (Ca2+ signal time course, Figure 4f) / Mean (concentration-response, Figure 4g): R2351Q
# T3 construct: expressed in transfected cells
# T3 sequence (E2JF22 whole entry R2351Q): as the sequence (E2JF22 whole entry E824V) above, with V824E, R2351Q counted along it
# Protocol: as §1, §2, §3
# G1994D mPIEZO1 = molecular target: T4, G1994D mPIEZO1 (Mus musculus, UniProt E2JF22, G1994D); conditions: for Mean (concentration-response, Figure 5g): G1994D
# T4 construct: expressed in transfected cells
# T4 sequence (E2JF22 whole entry G1994D): as the sequence (E2JF22 whole entry E824V) above, with V824E, G1994D counted along it
# Protocol: as §1, §2, §3
structure (smiles),measurement,setting,value
"O=C(O)c1ccc(-c2cnc(SCc3c(Cl)cccc3Cl)s2)cc1 [Yoda2b, 4-(2-([(2,6-Dichlorophenyl)methyl]sulfanyl)-1,3-thiazol-5-yl)benzoic acid]",EC50,E824V mPIEZO1,760 nM
same,EC50,WT mPIEZO1,140 nM
same,"Mean (Ca2+ signal time course, Figure 4f)","R2351Q mPIEZO1; 0.3 µM, time 0 s",-0.00345
same,"Mean (Ca2+ signal time course, Figure 4f)","R2351Q mPIEZO1; 0.3 µM, time 5 s",-0.00122
same,"Mean (Ca2+ signal time course, Figure 4f)","R2351Q mPIEZO1; 0.3 µM, time 10 s",0.01286
same,"Mean (Ca2+ signal time course, Figure 4f)","R2351Q mPIEZO1; 0.3 µM, time 15 s",0.00659
same,"Mean (Ca2+ signal time course, Figure 4f)","R2351Q mPIEZO1; 0.3 µM, time 20 s",-0.0106
same,"Mean (Ca2+ signal time course, Figure 4f)","R2351Q mPIEZO1; 0.3 µM, time 25 s",-0.00417
same,"Mean (Ca2+ signal time course, Figure 4f)","R2351Q mPIEZO1; 0.3 µM, time 30 s",-0.1638
same,"Mean (Ca2+ signal time course, Figure 4f)","R2351Q mPIEZO1; 0.3 µM, time 35 s",-0.1525
same,"Mean (Ca2+ signal time course, Figure 4f)","R2351Q mPIEZO1; 0.3 µM, time 40 s",0.1031
same,"Mean (Ca2+ signal time course, Figure 4f)","R2351Q mPIEZO1; 0.3 µM, time 45 s",0.1823
same,"Mean (Ca2+ signal time course, Figure 4f)","R2351Q mPIEZO1; 0.3 µM, time 50 s",0.2367
same,"Mean (Ca2+ signal time course, Figure 4f)","R2351Q mPIEZO1; 0.3 µM, time 55 s",0.2605
same,"Mean (Ca2+ signal time course, Figure 4f)","R2351Q mPIEZO1; 0.3 µM, time 60 s",0.2818
same,"Mean (Ca2+ signal time course, Figure 4f)","R2351Q mPIEZO1; 0.3 µM, time 65 s",0.2859
same,"Mean (Ca2+ signal time course, Figure 4f)","R2351Q mPIEZO1; 0.3 µM, time 70 s",0.3055
same,"Mean (Ca2+ signal time course, Figure 4f)","R2351Q mPIEZO1; 0.3 µM, time 75 s",0.2731
same,"Mean (Ca2+ signal time course, Figure 4f)","R2351Q mPIEZO1; 0.3 µM, time 80 s",0.2811
same,"Mean (Ca2+ signal time course, Figure 4f)","R2351Q mPIEZO1; 0.3 µM, time 85 s",0.2788
same,"Mean (Ca2+ signal time course, Figure 4f)","R2351Q mPIEZO1; 0.3 µM, time 90 s",0.2616
same,"Mean (Ca2+ signal time course, Figure 4f)","R2351Q mPIEZO1; 0.3 µM, time 95 s",0.2726
same,"Mean (Ca2+ signal time course, Figure 4f)","R2351Q mPIEZO1; 0.3 µM, time 100 s",0.2623
same,"Mean (Ca2+ signal time course, Figure 4f)","R2351Q mPIEZO1; 0.3 µM, time 105 s",0.2451
same,"Mean (Ca2+ signal time course, Figure 4f)","R2351Q mPIEZO1; 0.3 µM, time 110 s",0.2677
same,"Mean (Ca2+ signal time course, Figure 4f)","R2351Q mPIEZO1; 0.3 µM, time 115 s",0.2432
same,"Mean (Ca2+ signal time course, Figure 4f)","R2351Q mPIEZO1; 0.3 µM, time 120 s",0.2668
same,"Mean (Ca2+ signal time course, Figure 4f)","R2351Q mPIEZO1; 0.3 µM, time 125 s",0.2392
same,"Mean (Ca2+ signal time course, Figure 4f)","R2351Q mPIEZO1; 0.3 µM, time 130 s",0.2157
same,"Mean (Ca2+ signal time course, Figure 4f)","R2351Q mPIEZO1; 3 µM, time 0 s",-0.0127
same,"Mean (Ca2+ signal time course, Figure 4f)","R2351Q mPIEZO1; 3 µM, time 5 s",-0.01559
same,"Mean (Ca2+ signal time course, Figure 4f)","R2351Q mPIEZO1; 3 µM, time 10 s",0.01198
same,"Mean (Ca2+ signal time course, Figure 4f)","R2351Q mPIEZO1; 3 µM, time 15 s",0.01352
same,"Mean (Ca2+ signal time course, Figure 4f)","R2351Q mPIEZO1; 3 µM, time 20 s",7.66E-04
same,"Mean (Ca2+ signal time course, Figure 4f)","R2351Q mPIEZO1; 3 µM, time 25 s",0.00202
same,"Mean (Ca2+ signal time course, Figure 4f)","R2351Q mPIEZO1; 3 µM, time 30 s",-0.4931
same,"Mean (Ca2+ signal time course, Figure 4f)","R2351Q mPIEZO1; 3 µM, time 35 s",-0.08324
same,"Mean (Ca2+ signal time course, Figure 4f)","R2351Q mPIEZO1; 3 µM, time 40 s",0.5902
same,"Mean (Ca2+ signal time course, Figure 4f)","R2351Q mPIEZO1; 3 µM, time 45 s",0.919
same,"Mean (Ca2+ signal time course, Figure 4f)","R2351Q mPIEZO1; 3 µM, time 50 s",1.153
same,"Mean (Ca2+ signal time course, Figure 4f)","R2351Q mPIEZO1; 3 µM, time 55 s",1.288
same,"Mean (Ca2+ signal time course, Figure 4f)","R2351Q mPIEZO1; 3 µM, time 60 s",1.4
same,"Mean (Ca2+ signal time course, Figure 4f)","R2351Q mPIEZO1; 3 µM, time 65 s",1.461
same,"Mean (Ca2+ signal time course, Figure 4f)","R2351Q mPIEZO1; 3 µM, time 70 s",1.455
same,"Mean (Ca2+ signal time course, Figure 4f)","R2351Q mPIEZO1; 3 µM, time 75 s",1.399
same,"Mean (Ca2+ signal time course, Figure 4f)","R2351Q mPIEZO1; 3 µM, time 80 s",1.41
same,"Mean (Ca2+ signal time course, Figure 4f)","R2351Q mPIEZO1; 3 µM, time 85 s",1.397
same,"Mean (Ca2+ signal time course, Figure 4f)","R2351Q mPIEZO1; 3 µM, time 90 s",1.327
same,"Mean (Ca2+ signal time course, Figure 4f)","R2351Q mPIEZO1; 3 µM, time 95 s",1.295
same,"Mean (Ca2+ signal time course, Figure 4f)","R2351Q mPIEZO1; 3 µM, time 100 s",1.247
same,"Mean (Ca2+ signal time course, Figure 4f)","R2351Q mPIEZO1; 3 µM, time 105 s",1.236
same,"Mean (Ca2+ signal time course, Figure 4f)","R2351Q mPIEZO1; 3 µM, time 110 s",1.129
same,"Mean (Ca2+ signal time course, Figure 4f)","R2351Q mPIEZO1; 3 µM, time 115 s",1.087
same,"Mean (Ca2+ signal time course, Figure 4f)","R2351Q mPIEZO1; 3 µM, time 120 s",1.099
same,"Mean (Ca2+ signal time course, Figure 4f)","R2351Q mPIEZO1; 3 µM, time 125 s",1.0906
same,"Mean (Ca2+ signal time course, Figure 4f)","R2351Q mPIEZO1; 3 µM, time 130 s",0.9817
same,"Mean (concentration-response, Figure 4g)",R2351Q mPIEZO1; Yoda2b concentration 0.01 µM,6.31E-04
same,"Mean (concentration-response, Figure 4g)",R2351Q mPIEZO1; Yoda2b concentration 0.03 µM,0.01052
same,"Mean (concentration-response, Figure 4g)",R2351Q mPIEZO1; Yoda2b concentration 0.1 µM,0.03752
same,"Mean (concentration-response, Figure 4g)",R2351Q mPIEZO1; Yoda2b concentration 0.3 µM,0.1939
same,"Mean (concentration-response, Figure 4g)",R2351Q mPIEZO1; Yoda2b concentration 1 µM,0.4898
same,"Mean (concentration-response, Figure 4g)",R2351Q mPIEZO1; Yoda2b concentration 3 µM,0.7217
same,"Mean (concentration-response, Figure 4g)",R2351Q mPIEZO1; Yoda2b concentration 10 µM,0.9598
same,channel activation compared with Yoda1,"R2351Q mPIEZO1; side-by-side, same 96-well plate",more potently activated by Yoda2b
same,EC50,G1994D mPIEZO1; 1.5 min exposure,1000 nM
same,"Mean (concentration-response, Figure 5g)",G1994D mPIEZO1; Yoda2b concentration 0.01 µM,-0.02242
same,"Mean (concentration-response, Figure 5g)",G1994D mPIEZO1; Yoda2b concentration 0.03 µM,0.00849
same,"Mean (concentration-response, Figure 5g)",G1994D mPIEZO1; Yoda2b concentration 0.1 µM,0.01915
same,"Mean (concentration-response, Figure 5g)",G1994D mPIEZO1; Yoda2b concentration 0.3 µM,0.1358
same,"Mean (concentration-response, Figure 5g)",G1994D mPIEZO1; Yoda2b concentration 1 µM,0.5075
same,"Mean (concentration-response, Figure 5g)",G1994D mPIEZO1; Yoda2b concentration 3 µM,0.8675
same,"Mean (concentration-response, Figure 5g)",G1994D mPIEZO1; Yoda2b concentration 10 µM,1
